Assay results taken from the supplement of paper PMC10307832.

Columns and labels:
Experiment in all cases: relative viability (nuclei count vs DMSO), 5 days (fraction); higher = more cells survive
AZD8055 = compound: COc1ccc(-c2ccc3c(N4CCOC[C@@H]4C)nc(N4CCOC[C@@H]4C)nc3n2)cc1CO [AZD8055]
Procedure, shortened: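 Hoechst staining, done together with fixation and permeabilisation, marked nuclei for 4× imaging and MetaXpress counting. This followed 5 days without medium change after lung cancer cell lines, kept overnight at 37 °C in 1536-well plates, were pinned with five library-drug doses (not always all listed) spaced by √10 on vehicle-anchored plates. Viability is the ratio of treated-well to vehicle-well nuclei, expressed as a median across plates. Plates passed only at control CV below 25% with at least one doubling.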

AZD8055 + Bortezomib = compound: COc1ccc(-c2ccc3c(N4CCOC[C@@H]4C)nc(N4CCOC[C@@H]4C)nc3n2)cc1CO [AZD8055] + CC(C)C[C@H](NC(=O)[C@H](Cc1ccccc1)NC(=O)c1cnccn1)B(O)O [Bortezomib] (partner 0.002 µM)
Procedure, shortened: (§1)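 Lung cancer cell lines were seeded in 1536-well plates and dosed by pin tool the next day, with either a single drug or a fixed anchor-drug dose combined with five library-drug doses (not always all listed) spaced in √10 steps. Five days later, one step fixed the cells and stained their nuclei (final 0.05% Triton X-100, 1% formaldehyde, 1 ug/ml Hoechst), and nuclei were counted on 4× images. Relative viability is the nuclei count in treated wells divided by the count in vehicle wells, and each value is the median of duplicate plates.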

AZD8055 + Navitoclax = compound: COc1ccc(-c2ccc3c(N4CCOC[C@@H]4C)nc(N4CCOC[C@@H]4C)nc3n2)cc1CO [AZD8055] + CC1(C)CCC(c2ccc(Cl)cc2)=C(CN2CCN(c3ccc(C(=O)NS(=O)(=O)c4ccc(N[C@H](CCN5CCOCC5)CSc5ccccc5)c(S(=O)(=O)C(F)(F)F)c4)cc3)CC2)C1 [Navitoclax] (partner 0.5 µM)
Procedure, shortened: as §1

AZD8055 + Foretinib = compound: COc1ccc(-c2ccc3c(N4CCOC[C@@H]4C)nc(N4CCOC[C@@H]4C)nc3n2)cc1CO [AZD8055] + COc1cc2c(Oc3ccc(NC(=O)C4(C(=O)Nc5ccc(F)cc5)CC4)cc3F)ccnc2cc1OCCCN1CCOCC1 [Foretinib] (partner 0.25 µM)
Procedure, shortened: as §1

AZD8055 + Lapatinib = compound: COc1ccc(-c2ccc3c(N4CCOC[C@@H]4C)nc(N4CCOC[C@@H]4C)nc3n2)cc1CO [AZD8055] + CS(=O)(=O)CCNCc1ccc(-c2ccc3ncnc(Nc4ccc(OCc5cccc(F)c5)c(Cl)c4)c3c2)o1 [Lapatinib] (partner 2 µM)
Procedure, shortened: as §1

AZD8055 + Pictilisib = compound: COc1ccc(-c2ccc3c(N4CCOC[C@@H]4C)nc(N4CCOC[C@@H]4C)nc3n2)cc1CO [AZD8055] + CS(=O)(=O)N1CCN(Cc2cc3nc(-c4cccc5[nH]ncc45)nc(N4CCOCC4)c3s2)CC1 [Pictilisib] (partner 1 µM)
Procedure, shortened: as §1

AZD8055 + Crizotinib = compound: COc1ccc(-c2ccc3c(N4CCOC[C@@H]4C)nc(N4CCOC[C@@H]4C)nc3n2)cc1CO [AZD8055] + C[C@@H](Oc1cc(-c2cnn(C3CCNCC3)c2)cnc1N)c1c(Cl)ccc(F)c1Cl [Crizotinib] (partner 1 µM)
Procedure, shortened: as §1

AZD8055 + Linsitinib = compound: COc1ccc(-c2ccc3c(N4CCOC[C@@H]4C)nc(N4CCOC[C@@H]4C)nc3n2)cc1CO [AZD8055] + C[C@]1(O)C[C@@H](c2nc(-c3ccc4ccc(-c5ccccc5)nc4c3)c3c(N)nccn32)C1 [Linsitinib] (partner 1 µM)
Procedure, shortened: as §1

AZD8055 + Alpelisib = compound: COc1ccc(-c2ccc3c(N4CCOC[C@@H]4C)nc(N4CCOC[C@@H]4C)nc3n2)cc1CO [AZD8055] + Cc1nc(NC(=O)N2CCC[C@H]2C(N)=O)sc1-c1ccnc(C(C)(C)C(F)(F)F)c1 [Alpelisib] (partner 2 µM)
Procedure, shortened: as §1

AZD8055 + Vorinostat = compound: COc1ccc(-c2ccc3c(N4CCOC[C@@H]4C)nc(N4CCOC[C@@H]4C)nc3n2)cc1CO [AZD8055] + O=C(CCCCCCC(=O)Nc1ccccc1)NO [Vorinostat] (partner 1 µM)
Procedure, shortened: as §1

AZD8055 + Olaparib = compound: COc1ccc(-c2ccc3c(N4CCOC[C@@H]4C)nc(N4CCOC[C@@H]4C)nc3n2)cc1CO [AZD8055] + O=C(c1cc(Cc2n[nH]c(=O)c3ccccc23)ccc1F)N1CCN(C(=O)C2CC2)CC1 [Olaparib] (partner 8 µM)
Procedure, shortened: as §1

IA-LM
relative viability (AZD8055; 0.01 µM): 0.98
relative viability (AZD8055; 0.03162 µM): 0.651
relative viability (AZD8055; 0.1 µM): 0.241
relative viability (AZD8055; 0.3162 µM): 0.103
relative viability (AZD8055; 1 µM): 0.116
relative viability (AZD8055 + Bortezomib; first compound 0.01 µM): 0.706
relative viability (AZD8055 + Bortezomib; first compound 0.03162 µM): 0.363
relative viability (AZD8055 + Bortezomib; first compound 0.1 µM): 0.114
relative viability (AZD8055 + Bortezomib; first compound 0.3162 µM): 0.106
relative viability (AZD8055 + Bortezomib; first compound 1 µM): 0.0977
relative viability (AZD8055 + Navitoclax; first compound 0.01 µM): 0.566
relative viability (AZD8055 + Navitoclax; first compound 0.03162 µM): 0.495
relative viability (AZD8055 + Navitoclax; first compound 0.1 µM): 0.291
relative viability (AZD8055 + Navitoclax; first compound 0.3162 µM): 0.109
relative viability (AZD8055 + Navitoclax; first compound 1 µM): 0.105
relative viability (AZD8055 + Foretinib; first compound 0.01 µM): 0.933
relative viability (AZD8055 + Foretinib; first compound 0.03162 µM): 0.659
relative viability (AZD8055 + Foretinib; first compound 0.1 µM): 0.567
relative viability (AZD8055 + Foretinib; first compound 0.3162 µM): 0.169
relative viability (AZD8055 + Foretinib; first compound 1 µM): 0.126
relative viability (AZD8055 + Lapatinib; first compound 0.01 µM): 0.802
relative viability (AZD8055 + Lapatinib; first compound 0.03162 µM): 0.319
relative viability (AZD8055 + Lapatinib; first compound 0.1 µM): 0.216
relative viability (AZD8055 + Lapatinib; first compound 0.3162 µM): 0.132
relative viability (AZD8055 + Lapatinib; first compound 1 µM): 0.112
relative viability (AZD8055 + Pictilisib; first compound 0.01 µM): 0.221
relative viability (AZD8055 + Pictilisib; first compound 0.03162 µM): 0.217
relative viability (AZD8055 + Pictilisib; first compound 0.1 µM): 0.118
relative viability (AZD8055 + Pictilisib; first compound 0.3162 µM): 0.0814
relative viability (AZD8055 + Pictilisib; first compound 1 µM): 0.0826
relative viability (AZD8055 + Crizotinib; first compound 0.01 µM): 0.923
relative viability (AZD8055 + Crizotinib; first compound 0.03162 µM): 0.472
relative viability (AZD8055 + Crizotinib; first compound 0.1 µM): 0.347
relative viability (AZD8055 + Crizotinib; first compound 0.3162 µM): 0.0713
relative viability (AZD8055 + Crizotinib; first compound 1 µM): 0.105
relative viability (AZD8055 + Linsitinib; first compound 0.01 µM): 0.876
relative viability (AZD8055 + Linsitinib; first compound 0.03162 µM): 0.611
relative viability (AZD8055 + Linsitinib; first compound 0.1 µM): 0.252
relative viability (AZD8055 + Linsitinib; first compound 0.3162 µM): 0.0793
relative viability (AZD8055 + Linsitinib; first compound 1 µM): 0.118
relative viability (AZD8055 + Alpelisib; first compound 0.01 µM): 0.749
relative viability (AZD8055 + Alpelisib; first compound 0.03162 µM): 0.485
relative viability (AZD8055 + Alpelisib; first compound 0.1 µM): 0.212
relative viability (AZD8055 + Alpelisib; first compound 0.3162 µM): 0.0977
relative viability (AZD8055 + Alpelisib; first compound 1 µM): 0.0895
relative viability (AZD8055 + Vorinostat; first compound 0.01 µM): 0.814
relative viability (AZD8055 + Vorinostat; first compound 0.03162 µM): 0.758
relative viability (AZD8055 + Vorinostat; first compound 0.1 µM): 0.524
relative viability (AZD8055 + Vorinostat; first compound 0.3162 µM): 0.172
relative viability (AZD8055 + Vorinostat; first compound 1 µM): 0.127
relative viability (AZD8055 + Olaparib; first compound 0.01 µM): 0.8
relative viability (AZD8055 + Olaparib; first compound 0.03162 µM): 0.823
relative viability (AZD8055 + Olaparib; first compound 0.1 µM): 0.551
relative viability (AZD8055 + Olaparib; first compound 0.3162 µM): 0.302
relative viability (AZD8055 + Olaparib; first compound 1 µM): 0.114
